# What was measured:
# ragweed = assay: Test C pre-/postemergence herbicide test; type: in vivo, Ambrosia elatior
# Summary of the method: (§1)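 Response scores range from 0, meaning no effect, to 100, meaning complete control, assigned visually by comparison with controls roughly two weeks (13 to 15 days) after spraying. Applications were made preemergence to seeded loam–sand soil and postemergence to 1- to 4-leaf plants.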
# johnsongrass = assay: Test C pre-/postemergence herbicide test; type: in vivo, Sorghum halepense
# Summary of the method: as §1
# pigweed = assay: Test A pre-/postemergence herbicide test; type: in vivo, Amaranthus retroflexus
# Summary of the method: (§2)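 Scoring was visual, relative to untreated controls, on a 0–100 scale after about 10 greenhouse days. Preemergence treatment used a directed soil spray over seeded loam/sand; postemergence treatment targeted one- to two-leaf plants of 2–10 cm.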
# ryegrass, Italian = assay: Test C pre-/postemergence herbicide test; type: in vivo, Lolium multiflorum
# Summary of the method: as §1
# blackgrass = assay: Test C pre-/postemergence herbicide test; type: in vivo, Alopecurus myosuroides
# Summary of the method: as §1
# crabgrass, large = assay: Test C pre-/postemergence herbicide test; type: in vivo, Digitaria sanguinalis
# Summary of the method: as §1
# wheat = assay: Test A pre-/postemergence herbicide test; type: in vivo, Triticum aestivum; settings: Postemergence
# Summary of the method: as §2
# giant foxtail = assay: Test A pre-/postemergence herbicide test; type: in vivo, Setaria faberii
# Summary of the method: as §2
# foxtail, giant = assay: Test C pre-/postemergence herbicide test; type: in vivo, Setaria faberii
# Summary of the method: as §1
# nutsedge, yellow = assay: Test C pre-/postemergence herbicide test; type: in vivo, Cyperus esculentus
# Summary of the method: as §1
# sedge, umbrella = assay: Test B flooded paddy test; type: in vivo, Cyperus difformis; settings: 500 g ai/ha, Flood; scale of 0 to 100 where 0 is no effect and 100 is complete control
# Summary of the method: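 Plants were grown to the 2-leaf stage, then pots were flooded to 3 cm above the soil and compound was applied directly into the paddy water, with that depth held throughout. After 13 to 15 days in a greenhouse, injury was rated visually against untreated controls on a 0 to 100 scale (100 = complete control).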
# [1] = Postemergence, 31 g ai/ha, scale 0 to 100 (0 no effect, 100 complete control)
# [2] = Postemergence, 62 g ai/ha, scale 0 (no effect) to 100 (complete control)
# [3] = Postemergence, 125 g ai/ha, scale 0 to 100 (0 no effect, 100 complete control)
# [4] = Postemergence, 250 g ai/ha, scale 0 to 100 (0 no effect, 100 complete control)
# [5] = Preemergence, 31 g ai/ha, scale 0 to 100, 0 is no effect and 100 is complete control
# [6] = Preemergence, 62 g ai/ha, scale 0 to 100 (0 no effect, 100 complete control)
# [7] = Preemergence, 125 g ai/ha, scale 0 to 100 (0 no effect, 100 complete control)
# [8] = Postemergence, 125 g ai/ha, visual rating on 0 to 100 scale (0 no effect, 100 complete control), approx. 10 days
# [9] = Postemergence, 500 g ai/ha, 0 to 100 scale (0 no effect, 100 complete control)
# [10] = Preemergence, 125 g ai/ha, 0 to 100 scale where 0 is no effect and 100 is complete control
# [11] = Preemergence, 500 g ai/ha, visual rating on 0 to 100 scale (0 no effect, 100 complete control)
# [12] = 125 g ai/ha, visual rating on 0 to 100 scale (0 no effect, 100 complete control), approx. 10 days
# [13] = 500 g ai/ha, 0 to 100 scale (0 no effect, 100 complete control)
# [14] = preemergence, 500 g ai/ha, 0 to 100 scale, 0 is no effect and 100 is complete control
smiles,measurement,setting,value
CN1CC(c2cccc(C(F)(F)F)c2)C(C(=O)Nc2cccc(F)c2F)C1=O (stereo not shown) [Compound 305],"Plant response rating, Ragweed",ragweed; [1],0
same,"Plant response rating, Ragweed",ragweed; [2],0
same,"Plant response rating, Ragweed",ragweed; [3],40
same,"Plant response rating, Ragweed",ragweed; [4],45
same,Ragweed plant response rating,ragweed; [5],0
same,Ragweed plant response rating,ragweed; [6],15
same,"Plant response rating, Ragweed",ragweed; [7],35
same,"Plant response rating (scale of 0 to 100), Ragweed","ragweed; Preemergence, 250 g ai/ha",75
same,"Plant response rating, Johnsongrass",johnsongrass; [1],0
same,"Plant response rating, Johnsongrass",johnsongrass; [2],0
same,"Plant response rating, Johnsongrass",johnsongrass; [3],20
same,"Plant response rating, Johnsongrass",johnsongrass; [4],20
same,Johnsongrass plant response rating,johnsongrass; [5],80
same,Johnsongrass plant response rating,johnsongrass; [6],85
same,"Plant response rating, Johnsongrass",johnsongrass; [7],90
same,"Plant response rating (scale of 0 to 100), Johnsongrass","johnsongrass; Preemergence, 250 g ai/ha",90
same,"Plant response rating, Pigweed",pigweed; [8],60
same,"Plant response rating, Pigweed",pigweed; [9],70
same,"Plant response rating, Pigweed",pigweed; [10],0
same,Pigweed plant response rating,pigweed; [11],40
same,"Plant response rating, Ryegrass, Italian","ryegrass, Italian; [1]",0
same,"Plant response rating, Ryegrass, Italian","ryegrass, Italian; [2]",0
same,"Plant response rating, Ryegrass, Italian","ryegrass, Italian; [3]",0
same,"Plant response rating, Ryegrass, Italian","ryegrass, Italian; [4]",45
same,"Ryegrass, Italian plant response rating","ryegrass, Italian; [5]",15
same,"Ryegrass, Italian plant response rating","ryegrass, Italian; [6]",50
same,"Plant response rating, Ryegrass, Italian","ryegrass, Italian; [7]",50
same,"Plant response rating (scale of 0 to 100), Ryegrass, Italian","ryegrass, Italian; Preemergence, 250 g ai/ha",80
same,"Plant response rating, Blackgrass",blackgrass; [1],0
same,"Plant response rating, Blackgrass",blackgrass; [2],0
same,"Plant response rating, Blackgrass",blackgrass; [3],30
same,"Plant response rating, Blackgrass",blackgrass; [4],10
same,Blackgrass plant response rating,blackgrass; [5],60
same,Blackgrass plant response rating,blackgrass; [6],75
same,"Plant response rating, Blackgrass",blackgrass; [7],70
same,"Plant response rating (scale of 0 to 100), Blackgrass","blackgrass; Preemergence, 250 g ai/ha",90
same,"Plant response rating, Crabgrass, Large","crabgrass, large; [1]",40
same,"Plant response rating, Crabgrass, Large","crabgrass, large; [2]",55
same,"Plant response rating, Crabgrass, Large","crabgrass, large; [3]",75
same,"Plant response rating, Crabgrass, Large","crabgrass, large; [4]",80
same,"Crabgrass, Large plant response rating","crabgrass, large; [5]",95
same,"Crabgrass, Large plant response rating","crabgrass, large; [6]",95
same,"Plant response rating, Crabgrass, Large","crabgrass, large; [7]",90
same,"Plant response rating (scale of 0 to 100), Crabgrass, Large","crabgrass, large; Preemergence, 250 g ai/ha",95
same,"Plant response rating, Wheat",wheat; [12],60
same,"Plant response rating, Wheat",wheat; [13],70
same,"Plant response rating, Foxtail, Giant",giant foxtail; [8],80
same,"Plant response rating, Foxtail, Giant",giant foxtail; [9],80
same,"Plant response rating, Foxtail, Giant",giant foxtail; [10],90
same,"Foxtail, Giant plant response rating",giant foxtail; [11],90
same,"Plant response rating, Foxtail, Giant","foxtail, giant; [1]",0
same,"Plant response rating, Foxtail, Giant","foxtail, giant; [2]",65
same,"Plant response rating, Foxtail, Giant","foxtail, giant; [3]",85
same,"Plant response rating, Foxtail, Giant","foxtail, giant; [4]",90
same,"Foxtail, Giant plant response rating","foxtail, giant; [5]",95
same,"Foxtail, Giant plant response rating","foxtail, giant; [6]",95
same,"Plant response rating, Foxtail, Giant","foxtail, giant; [7]",95
same,"Plant response rating (scale of 0 to 100), Foxtail, Giant","foxtail, giant; Preemergence, 250 g ai/ha",95
same,"Plant response rating, Nutsedge, Yellow","nutsedge, yellow; [1]",0
same,"Plant response rating, Nutsedge, Yellow","nutsedge, yellow; [2]",0
same,"Plant response rating, Nutsedge, Yellow","nutsedge, yellow; [3]",0
same,"Plant response rating, Nutsedge, Yellow","nutsedge, yellow; [4]",0
same,"Nutsedge, Yellow plant response rating","nutsedge, yellow; [5]",0
same,"Nutsedge, Yellow plant response rating","nutsedge, yellow; [6]",0
same,"Plant response rating, Nutsedge, Yellow","nutsedge, yellow; [7]",0
same,"Plant response rating (scale of 0 to 100), Nutsedge, Yellow","nutsedge, yellow; Preemergence, 250 g ai/ha",100
same,"Plant response rating, Sedge, Umbrella","sedge, umbrella",0
O=C1NCC(c2cc(F)cc(F)c2)C1C(=O)Nc1ccccc1Cl (racemic) [Compound 280],Ragweed plant response rating,ragweed; [5],0
same,Ragweed plant response rating,ragweed; [6],0
same,"Plant response rating, Ragweed",ragweed; [7],0
same,"Plant response rating (scale of 0 to 100), Ragweed","ragweed; Preemergence, 250 g ai/ha",60
same,Johnsongrass plant response rating,johnsongrass; [5],0
same,Johnsongrass plant response rating,johnsongrass; [6],0
same,"Plant response rating, Johnsongrass",johnsongrass; [7],10
same,"Plant response rating (scale of 0 to 100), Johnsongrass","johnsongrass; Preemergence, 250 g ai/ha",10
same,"Plant response rating, Pigweed",pigweed; [8],0
same,"Plant response rating, Pigweed",pigweed; [9],0
same,"Plant response rating, Pigweed",pigweed; [10],0
same,"Plant response rating, Pigweed",pigweed; [14],0
same,"Ryegrass, Italian plant response rating","ryegrass, Italian; [5]",0
same,"Ryegrass, Italian plant response rating","ryegrass, Italian; [6]",0
same,"Plant response rating, Ryegrass, Italian","ryegrass, Italian; [7]",0
same,"Plant response rating (scale of 0 to 100), Ryegrass, Italian","ryegrass, Italian; Preemergence, 250 g ai/ha",5
same,Blackgrass plant response rating,blackgrass; [5],0
same,Blackgrass plant response rating,blackgrass; [6],0
same,"Plant response rating, Blackgrass",blackgrass; [7],0
same,"Plant response rating (scale of 0 to 100), Blackgrass","blackgrass; Preemergence, 250 g ai/ha",0
same,"Crabgrass, Large plant response rating","crabgrass, large; [5]",85
same,"Crabgrass, Large plant response rating","crabgrass, large; [6]",90
same,"Plant response rating, Crabgrass, Large","crabgrass, large; [7]",95
same,"Plant response rating (scale of 0 to 100), Crabgrass, Large","crabgrass, large; Preemergence, 250 g ai/ha",100
same,"Plant response rating, Wheat",wheat; [12],0
same,"Plant response rating, Wheat",wheat; [13],0
same,"Plant response rating, Foxtail, Giant","giant foxtail; Postemergence, 125 g ai/ha, 0 to 100 scale, 0 is no effect, 100 is complete control",70
same,"Plant response rating, Foxtail, Giant",giant foxtail; [9],80
same,"Plant response rating, Foxtail, Giant",giant foxtail; [10],90
same,"Plant response rating, Foxtail, Giant",giant foxtail; [14],90
same,"Foxtail, Giant plant response rating","foxtail, giant; [5]",70
same,"Foxtail, Giant plant response rating","foxtail, giant; [6]",80
same,"Plant response rating, Foxtail, Giant","foxtail, giant; [7]",90
same,"Plant response rating (scale of 0 to 100), Foxtail, Giant","foxtail, giant; Preemergence, 250 g ai/ha",95
same,"Nutsedge, Yellow plant response rating","nutsedge, yellow; [5]",0
same,"Nutsedge, Yellow plant response rating","nutsedge, yellow; [6]",0
same,"Plant response rating, Nutsedge, Yellow","nutsedge, yellow; [7]",0
same,"Plant response rating (scale of 0 to 100), Nutsedge, Yellow","nutsedge, yellow; Preemergence, 250 g ai/ha",100
same,"Plant response rating, Sedge, Umbrella","sedge, umbrella",0
